Key:
[1] = test system: NSPs; experiment: Stability (protein level) of NSPs in U937 cells, Western blot, NSPs together; assay type: cell-based, human; details: U937, 10 μM, 24 h
Experimental: The Western blot experiments in this study were performed as described below. Cells in the logarithmic growth phase were collected in appropriate numbers according to different experimental purposes. After being thoroughly washed with phosphate-buffered saline and centrifuged, the cell pellets were resuspended in phosphate-buffered saline to obtain single-cell suspensions. Cells were fully lysed using RIPA buffer (Beyotime, P0013B) supplemented with EDTA-free protease and phosphatase inhibitor (Abcam, ab201120). Total cellular protein solutions were obtained after centrifugation to remove cell debris. The isolated proteins were quantified using the BeyoBCA protein assay kit (Beyotime, P0399M) following the operational protocol. The quantified protein samples were thoroughly mixed with protein loading buffer, boiled on a dry bath for 5 min, and then cooled to room temperature for Western blot analysis. […] Finally, enhanced chemiluminescent horseradish peroxidase substrate (Tanon Science & Technology Co., Ltd., Shanghai, China, 180-506) was used to visualize protein bands on a ChemiDoc XRS system (Bio-Rad Laboratories, Inc., Hercules, CA, USA), and the protein bands were quantified using Image Lab analysis software (Version 6.1) (Bio-Rad). […]

[2] = biological target: T1, intracellular CTSC (Homo sapiens, UniProt P53634); experiment: CTSC cell-based assay using the U937 cell line; details: read-out: Cell-Based Enz (IC50: nM)
T1 construct: endogenous in cells; host or cells: U937
Experimental: Cell-based CTSC enzymatic activity assays were performed in 96-well clear-bottom black microplates. […] The detection substrate, H-Gly-Arg-AFC, was diluted to 100 µM in serum-free medium and stored for later use. U937 cells in the logarithmic growth phase were harvested, washed with PBS, and counted. A single-cell suspension was prepared at a density of 1.0 × 10^6 cells/mL using serum-free medium. 30 µL of cell suspension was seeded into each well of the 96-well plate. To the test wells, 10 µL of the compound working solution was added, while 10 µL of serum-free medium was added to the control wells. The plate was pre-incubated in a cell culture incubator at 37 °C for 3 h. Subsequently, 10 µL of H-Gly-Arg-AFC was added to initiate the enzymatic reaction, and the plate was further incubated at 37 °C for 1 h. Fluorescence measurements were performed using a multimode microplate reader at excitation/emission wavelengths of 400/505 nm. Each group of tests was independently repeated at least 3 times, and IC50 values were calculated using SPSS 10.0.

[3] = test system: NE; experiment: NSPs activity in U937 cells after 5 days of treatment, NE; assay type: cell-based, human; details: U937, 10 μM
Experimental: U937 cells in the logarithmic growth phase were collected and equally divided into six portions. Four of these portions were treated with DMSO solutions of the test compound at varying concentrations to achieve final concentrations of 1.25, 2.5, 5, and 10 μM, respectively. An equal volume of DMSO was added to one portion as a blank control, while another portion treated with a DMSO solution of AZD7986 served as a positive control. The cells were cultured under standard U937 conditions for 5 consecutive days, with daily medium changes and fresh compound treatments administered using the same protocol. Following 5 days of treatment, cells were harvested, washed twice thoroughly with phosphate-buffered saline, and lysed in phosphate-buffered saline containing 1% Triton X-100. The lysates were centrifuged to collect the supernatant, and protein concentrations were determined as previously described to ensure equal total protein loading across all samples. The prepared samples were stored at −20 °C until further analysis. Different assay buffers were prepared for diluting samples and measuring the activities of specific NSPs: a buffer containing 50 mM Tris and 750 mM NaCl (pH 7.4) was used for NE and PR3; a buffer containing 50 mM Tris, 750 mM NaCl, 5 mM EDTA (pH 7.4) was used for Cat G; and a buffer containing 25 mM MES, 50 mM NaCl, 5 mM DTT (pH 6.0) was used for CTSC. […]

T1 sequence (P53634 25-463): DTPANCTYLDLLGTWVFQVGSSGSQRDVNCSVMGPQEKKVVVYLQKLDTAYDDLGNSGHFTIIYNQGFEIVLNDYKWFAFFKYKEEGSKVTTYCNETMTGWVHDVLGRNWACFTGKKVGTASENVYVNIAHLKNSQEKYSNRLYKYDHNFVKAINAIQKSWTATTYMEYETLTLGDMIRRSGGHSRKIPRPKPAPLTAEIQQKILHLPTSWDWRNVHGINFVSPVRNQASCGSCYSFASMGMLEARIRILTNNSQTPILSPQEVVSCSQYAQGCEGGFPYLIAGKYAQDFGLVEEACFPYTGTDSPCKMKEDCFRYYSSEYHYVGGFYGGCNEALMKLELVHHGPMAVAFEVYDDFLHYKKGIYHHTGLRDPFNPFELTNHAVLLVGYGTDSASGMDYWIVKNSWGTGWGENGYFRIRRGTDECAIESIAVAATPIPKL

In the case of C[C@@H]1C[C@H]2OC(=O)[C@@]3(C)CCC[C@@](C)([C@@H]23)[C@@]1(O)CCc1ccoc1 [Marrubiin, marrubiin], the “content of NSPs, % of the original level” value [1] is reported as 75.4–87.8%, the IC50 [2] is reported as 51.6 ± 3.2 nM and the “NE activity, % of DMSO group” value [3] is reported as 8.2%.
